{"source": "paper PMC7835349", "about": "(Communications Biology, 2021)", "key": {"[1]": {"tested_on": "cleaved caspase-3 (CC3)", "experiment": "Cleaved caspase-3 immunohistochemistry of RS4;11 tumours", "type": "in vivo, C.B-17 SCID mouse", "conditions": "RS4;11 tumours, 1, 5 and 24 h post dose", "protocol": "Formalin fixed paraffin embedded (FFPE) slides were cut on a rotary microtome at 4 µm and placed onto Superfrost plus slides (VWR) dried thoroughly, and then baked for 20 min in an oven at 60 °C. Slides were then stained on a Ventana Discovery XT using a CCI standard protocol and DAB Map Kit (Ventana cat # 760-124). The slides were then incubated in the primary CC3 (Cell Signaling Technology) antibody at 100µL per slide of a 1:50 dilution for 1 h. The secondary antibody was a biotinylated goat anti-rabbit from Vector Labs (PK-6101) made according to manufacturer’s instructions and put in an auto-dispense container. The slides were incubated in the secondary antibody for 30 min and then counterstained with Hematoxylin (Ventana 760-2021) for 4 min and blued with bluing reagent (Ventana 760-2037) for 4 min. After the Ventana run was complete, slides were taken off the machine, rinsed in reaction buffer, dehydrated, cleared and mounted with permount. Digital slide images were acquired at 20 x magnification using the Aperio Scanscope XT (Vista, CA)."}, "[2]": {"experiment": "Mathematical model of in vivo disposition of drug-dendrimer conjugates", "parameters": "species or system mouse", "conditions": "best fit of Eq. (3) to released AZD4320 in RS4;11 tumour"}, "[3]": {"experiment": "Formulation dependent plasma and tumour pharmacokinetics of AZD4320 (Fig S2b)", "type": "in vivo", "conditions": "mouse, 5 mg/kg IV, 30% HPbCD", "protocol": "Supplementary Figure 2. Formulation dependent efficacy of AZD4320 (a) A single 5mg/kg IV bolus dose of AZD4320 formulated in 30% hydroxypropyl-β-cyclodextrin (HP-β-CD) […]\nData in the graphs are represented as mean tumor volume\n± SEM (n=5). Arrow indicates dosing schedule.(b) A pharmacokinetic profile from both […]\nexplained by differential profiles in the plasma. The plasma profiles are similar. The efficacy is consistent with the concentration profiles observed in the tumour (n=4, Tween formulation, yellow, n=8 HP-β-CD formulation, purple). Lines connect the mean values.\n(1 picture or pasted object on this page, not shown here)"}}, "note": "Where “and” joins values, the source holds several entries; their conditions need not be identical. Identical values can stand only once.", "data": [{"compound": "CN(CCO)CCC(CSc1ccccc1)Nc1ccc(S(=O)(=O)NC(=O)c2ccc(N3CCC(C(O)c4ccccc4-c4ccc(Cl)cc4)CC3)cc2)cc1S(=O)(=O)C(F)(F)F", "note": "(stereo not shown) [AZD4320]", "values": [{"measurement": "cleaved caspase-3 induction by IHC", "setting": "[1]", "value": "robust cleaved caspase induction"}, {"measurement": "Constant for return of released AZD4320 from tumour tissue to systemic circulation (first order) ktu", "setting": "[2]", "value": 0.053, "unit": "h⁻¹"}, {"measurement": "concentration at 6 h", "setting": "[3]; C.B-17 SCID, plasma, iv, 5 mg/kg, 6 h, study CIV-12-112", "value": 65, "unit": "nM"}, {"measurement": "concentration at 0.5 h", "setting": "[3]; C.B-17 SCID, tumour, iv, 5 mg/kg, Tumor, 0.5 h, study CIV-11-055", "value": 815, "unit": "nM"}, {"measurement": "concentration at 1 h", "setting": "[3]; C.B-17 SCID, tumour, iv, 5 mg/kg, Tumor, 1 h, study CIV-11-055", "value": 473, "unit": "nM"}, {"measurement": "concentration at 6 h", "setting": "[3]; C.B-17 SCID, tumour, iv, 5 mg/kg, Tumor, 6 h, study CIV-11-055", "value": 312, "unit": "nM"}, {"measurement": "concentration at 6 h", "setting": "[3]; C.B-17 SCID, tumour, iv, 5 mg/kg, Tumor, 6 h, study CIV-12-112", "value": 436, "unit": "nM"}, {"measurement": "concentration at 24 h", "setting": "[3]; C.B-17 SCID, tumour, iv, 5 mg/kg, Tumor, 24 h, study CIV-11-055", "value": 275, "unit": "nM"}, {"measurement": "concentration at 24 h", "setting": "[3]; C.B-17 SCID, tumour, iv, 5 mg/kg, Tumor, 24 h, study CIV-12-112", "value": 165, "unit": "nM"}, {"measurement": "Concentration", "setting": "[3]; Plasma, 6 h, study CIV-12-112", "value": "114 nM and 108 nM and 59 nM"}, {"measurement": "Concentration", "setting": "[3]; Tumor, 0.5 h, study CIV-11-055", "value": "750 nM and 857 nM and 503 nM"}, {"measurement": "Concentration", "setting": "[3]; Tumor, 1 h, study CIV-11-055", "value": "394 nM and 626 nM and 461 nM"}, {"measurement": "Concentration", "setting": "[3]; Tumor, 6 h, study CIV-11-055", "value": "253 nM and 344 nM and 313 nM"}, {"measurement": "Concentration", "setting": "[3]; Tumor, 6 h, study CIV-12-112", "value": "568 nM and 289 nM and 439 nM"}, {"measurement": "Concentration", "setting": "[3]; Tumor, 24 h, study CIV-11-055", "value": "196 nM and 164 nM and 174 nM"}, {"measurement": "Concentration", "setting": "[3]; Tumor, 24 h, study CIV-12-112", "value": "172 nM and 93 nM and 130 nM"}]}]}
